Legend:
Assay in all cases: relative viability (nuclei count vs DMSO), 5 days (fraction); higher = more cells survive
[1] = compound: Cc1cc(Nc2cc(N3CCN(C)CC3)nc(Sc3ccc(NC(=O)C4CC4)cc3)n2)n[nH]1 [Tozasertib] + N=C(N)NC(=N)NCCc1ccccc1 [Phenformin] (partner 250 µM)
In short: (§1)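 Relative viability was taken as the ratio of nuclei in treated wells to nuclei in vehicle wells. Lung cancer cell lines in 1536-well plates received compounds by pin tool one day after seeding, either one drug alone or a fixed anchor-drug dose plus five library-drug doses (not always all listed) in √10 steps. Nuclei were counted on 4× images after 5 days of treatment, and values are medians of duplicate plates.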

[2] = compound: Cc1cc(Nc2cc(N3CCN(C)CC3)nc(Sc3ccc(NC(=O)C4CC4)cc3)n2)n[nH]1 [Tozasertib] + COc1cccc2cc(-c3nc([C@H]4CC[C@H](C(=O)O)CC4)n4ncnc(N)c34)[nH]c12 [OSI-027] (partner 0.5 µM)
In short: as §1

[3] = compound: Cc1cc(Nc2cc(N3CCN(C)CC3)nc(Sc3ccc(NC(=O)C4CC4)cc3)n2)n[nH]1 [Tozasertib] + CS(=O)(=O)CCNCc1ccc(-c2ccc3ncnc(Nc4ccc(OCc5cccc(F)c5)c(Cl)c4)c3c2)o1 [Lapatinib] (partner 2 µM)
In short: as §1

[4] = compound: Cc1cc(Nc2cc(N3CCN(C)CC3)nc(Sc3ccc(NC(=O)C4CC4)cc3)n2)n[nH]1 [Tozasertib] + Cc1nc(NC(=O)N2CCC[C@H]2C(N)=O)sc1-c1ccnc(C(C)(C)C(F)(F)F)c1 [Alpelisib] (partner 2 µM)
In short: as §1

[5] = compound: Cc1cc(Nc2cc(N3CCN(C)CC3)nc(Sc3ccc(NC(=O)C4CC4)cc3)n2)n[nH]1 [Tozasertib] + CCNC(=O)c1noc(-c2cc(C(C)C)c(O)cc2O)c1-c1ccc(CN2CCOCC2)cc1 [Luminespib] (partner 0.01 µM)
In short: as §1

Cell Line	relative viability ([1]; first compound 0.004 µM)	relative viability ([1]; first compound 0.01265 µM)	relative viability ([1]; first compound 0.04 µM)	relative viability ([1]; first compound 0.1265 µM)	relative viability ([2]; first compound 0.004 µM)	relative viability ([2]; first compound 0.01265 µM)	relative viability ([2]; first compound 0.04 µM)	relative viability ([2]; first compound 0.1265 µM)	relative viability ([3]; first compound 0.01265 µM)	relative viability ([3]; first compound 0.1265 µM)	relative viability ([4]; first compound 0.004 µM)	relative viability ([4]; first compound 0.01265 µM)	relative viability ([4]; first compound 0.04 µM)	relative viability ([4]; first compound 0.1265 µM)	relative viability ([5]; first compound 0.004 µM)	relative viability ([5]; first compound 0.01265 µM)	relative viability ([5]; first compound 0.04 µM)	relative viability ([5]; first compound 0.1265 µM)	relative viability ([3]; first compound 0.004 µM)	relative viability ([3]; first compound 0.04 µM)
NCI-H1755	0.593	0.597	0.592	0.483	0.661	0.636	0.725	0.601	1.01	0.882	0.518	0.908	0.948	0.629	0.259	0.386	0.322	0.413	–	–
NCI-H358	0.353	0.295	0.354	0.0988	0.779	0.803	0.982	0.125	0.376	0.206	1.08	0.863	0.83	0.182	0.265	0.394	0.382	0.234	0.54	0.439
HCC-15	0.504	0.477	0.5	0.341	0.745	0.64	0.665	0.419	0.852	0.751	0.942	0.841	–	0.728	0.296	0.282	0.306	0.238	0.992	0.92
NCI-H1915	0.381	0.324	0.336	0.321	0.669	0.592	0.658	0.569	0.968	0.688	1.07	1.04	1.02	0.95	0.968	0.835	0.678	0.482	1.05	0.897
LXF-289	0.589	0.511	0.507	0.383	0.695	0.731	0.779	0.441	0.846	0.722	–	1.05	0.955	0.615	0.573	0.51	0.664	0.399	0.956	0.823
COR-L 105	0.501	0.46	0.483	0.275	0.698	0.68	0.731	0.343	0.365	0.262	–	1.29	1.32	0.739	0.842	0.966	0.761	0.609	0.358	0.335
NCI-H2126	0.604	0.562	0.467	0.51	0.777	0.728	0.773	0.657	0.805	0.567	0.819	0.748	0.806	0.769	1	0.935	0.891	0.865	0.794	–
NCI-H650	0.497	0.445	0.444	0.379	0.549	0.512	0.535	0.452	0.844	0.454	1.23	1.06	–	–	0.901	0.845	0.678	0.646	1.05	0.991
